One test relates to PARP1 over PARP2. The following applies: PARP1 inhibitor and trapper; cited from earlier work.
The target in a further test is PARP1 (Homo sapiens, UniProt P09874). The experiment in a line: PARP1 biochemical DELFIA assay (auto-PARylation).

The text below walks through data of patent US20260193238A1, “PHARMACEUTICAL COMPOUNDS AS PARP7 AND/OR PARP1 INHIBITORS” (Duke Street Bio Limited, priority 2022, published 2026).

pIC50: −log10 of the molar value.

Chain of PARP1 (P09874 whole entry): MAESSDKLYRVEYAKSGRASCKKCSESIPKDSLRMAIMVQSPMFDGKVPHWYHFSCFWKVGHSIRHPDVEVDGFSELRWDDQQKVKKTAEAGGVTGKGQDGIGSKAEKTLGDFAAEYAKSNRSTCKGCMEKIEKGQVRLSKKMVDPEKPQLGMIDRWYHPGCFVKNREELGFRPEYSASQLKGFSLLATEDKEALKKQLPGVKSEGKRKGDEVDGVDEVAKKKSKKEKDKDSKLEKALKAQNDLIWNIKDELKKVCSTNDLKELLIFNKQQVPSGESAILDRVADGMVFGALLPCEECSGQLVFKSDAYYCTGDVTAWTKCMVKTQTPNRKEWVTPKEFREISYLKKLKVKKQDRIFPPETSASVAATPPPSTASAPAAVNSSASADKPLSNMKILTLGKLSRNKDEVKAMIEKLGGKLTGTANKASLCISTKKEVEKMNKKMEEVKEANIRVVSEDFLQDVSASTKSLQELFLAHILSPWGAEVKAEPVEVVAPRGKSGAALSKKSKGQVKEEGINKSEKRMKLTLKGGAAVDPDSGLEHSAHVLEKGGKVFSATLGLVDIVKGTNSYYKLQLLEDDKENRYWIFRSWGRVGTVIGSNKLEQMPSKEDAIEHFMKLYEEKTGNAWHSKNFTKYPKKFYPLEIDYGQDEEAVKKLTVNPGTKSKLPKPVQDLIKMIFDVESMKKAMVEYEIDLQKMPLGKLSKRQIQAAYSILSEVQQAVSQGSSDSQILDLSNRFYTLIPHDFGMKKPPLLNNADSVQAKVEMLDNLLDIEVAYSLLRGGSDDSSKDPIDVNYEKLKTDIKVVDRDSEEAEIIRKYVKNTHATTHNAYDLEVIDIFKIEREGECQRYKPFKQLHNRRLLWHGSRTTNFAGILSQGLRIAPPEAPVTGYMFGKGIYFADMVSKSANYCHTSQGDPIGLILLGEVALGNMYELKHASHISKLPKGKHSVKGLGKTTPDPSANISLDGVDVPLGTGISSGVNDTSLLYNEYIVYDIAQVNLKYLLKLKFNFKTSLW

Regarding `CCc1cc2ncc(CN3CCN(c4ccc(C(=O)NC)nc4)CC3)cc2[nH]c1=O` [AZD5305], the “selectivity over PARP2” value with PARP1 over PARP2 was 500 fold.
Regarding `O=C(CN1CCCCC1c1cc(C(F)(F)F)c(=O)[nH]n1)N1CCN(c2ncc(C(F)(F)F)cn2)CC1` (single isomer, unassigned) [Compound 66b], on PARP1 (Table 1A), the pIC50 is less than 5.00.
At PARP1 (Table 1A), `O=C(CN1CCCC1c1cc(C(F)(F)F)c(=O)[nH]n1)N1CCN(c2nc3ccc(F)cc3o2)CC1` (single isomer, unassigned) [Compound 95b] gave a pIC50 of 5.00 to 6.00.
For `N#Cc1ccc(N2CCN(C(=O)CN3CCCC3c3c[nH]c(=O)c(C(F)(F)F)c3)CC2)nc1` (single isomer, unassigned) [Compound 77b], the pIC50 against PARP1 (Table 1A) was 6.00 to 7.00.
At PARP1 (Table 1), `CCc1cc(C2CCCN(CCC(=O)N3CCN(c4ncc(C(F)(F)F)cn4)CC3)C2)n[nH]c1=O` (single isomer, unassigned) [Compound 6b, 4-ethyl-6-(1-(3-oxo-3-(4-(5-(trifluoromethyl)pyrimidin-2-yl)piperazin-1-yl)propyl)piperidin-3-yl)pyridazin-3(2H)-one] had a pIC50 of 6.00 to 7.00.
In the case of `O=C(CN1CCCC1c1cc(C(F)(F)F)c(=O)[nH]n1)N1CCN(c2ncc(F)cc2C(F)(F)F)CC1` (single isomer, unassigned) [Compound 120b], the pIC50 against PARP1 (Table 1A) was less than 5.00.
With `CN(c1ncc(C(F)(F)F)cn1)C1CCN(C(=O)CN2CCCC2c2cc(C(F)(F)F)c(=O)[nH]n2)CC1` (single isomer, unassigned) [Compound 107b], on PARP1 (Table 1A), the pIC50 was less than 5.00.
With `O=C(CN1CCCC1c1cc(C(F)(F)F)c(=O)[nH]n1)N1CCN(c2cc(Cl)c(F)cn2)CC1` (single isomer, unassigned) [Compound 80b], the pIC50 against PARP1 (Table 1A) is 7.00 to 8.00.
On to `CNC(=O)c1ccc(N2CCN(C(=O)CCN3CCC(c4cc(C(F)(F)F)c(=O)[nH]n4)CC3)CC2)cn1` [Compound 59], for which the pIC50 on PARP1 (Table 1A) was 7.00 to 8.00.
Molecule `CNC(=O)c1ccc(N2CCN(C(=O)CCN3CCCC3c3c[nH]c(=O)c(C(F)(F)F)c3)CC2)cn1` (single isomer, unassigned) [Compound 73b] had a pIC50 against PARP1 (Table 1A) of 5.00 to 6.00.
On the same count and under the same terms, the same measure for `COC1CC(c2cc(C(F)(F)F)c(=O)[nH]n2)N(CC(=O)N2CCN(c3ncc(C(F)(F)F)cn3)CC2)C1` (single isomer, unassigned) [Compound 138cis2, 6-(4-methoxy-1-(2-oxo-2-(4-(5-(trifluoromethyl)pyrimidin-2-yl)piperazin-1-yl)ethyl)pyrrolidin-2-yl)-4-(trifluoromethyl)pyridazin-3(2H)-one]: 5.00 to 6.00.
As to `O=C(CCN1CCCC(c2cc(C(F)(F)F)c(=O)[nH]n2)C1)N1CCN(c2cnc(C(F)(F)F)cn2)CC1` (racemic) [Compound 30rac], on PARP1 (Table 1), the pIC50 is 6.00 to 7.00.
Regarding `CN(C(=O)CN1CCCC1c1cc(C(F)(F)F)c(=O)[nH]n1)C1CCN(c2ncc(C(F)(F)F)cn2)CC1` (single isomer, unassigned) [Compound 34b], at PARP1 (Table 1A), the negative-log IC50 (pIC50) is 5.00 to 6.00.
Same read-out and setting: the same measure for `Cc1[nH]c(=O)c(C(F)(F)F)cc1C1CCCN1CC(=O)N1CCN(c2ncc(C(F)(F)F)cn2)CC1` (single isomer, unassigned) [Compound 102b, 6-methyl-5-(1-(2-oxo-2-(4-(5-(trifluoromethyl)pyrimidin-2-yl)piperazin-1-yl)ethyl)pyrrolidin-2-yl)-3-(trifluoromethyl)pyridin-2(1H)-one]: 5.00 to 6.00; for `O=C(CN1CCCC1c1cc(C(F)(F)F)c(=O)[nH]n1)N1CCN(c2ncc(Cl)cc2Cl)CC1` (single isomer, unassigned) [Compound 125a]: 6.00 to 7.00.
As for `O=C(CN1CCCC1c1cc(C(F)(F)F)c(=O)[nH]n1)N1CCC2(CC1)CN(c1ncc(C(F)(F)F)cn1)C2` (single isomer, unassigned) [Compound 101b], the pIC50 against PARP1 (Table 1A) was 6.00 to 7.00.
Molecule `N#Cc1cnc(N2CCN(C(=O)CN3CCCC3c3cc(C(F)(F)F)c(=O)[nH]n3)CC2)c(C(F)(F)F)c1` (single isomer, unassigned) [Compound 124b] showed a pIC50 against PARP1 (Table 1A) of 5.00 to 6.00.
In turn, `O=C(CN1CCCC1c1cc(C(F)(F)F)c(=O)[nH]n1)N1CCN(c2ccc(F)cn2)CC1` (single isomer, unassigned) [Compound 46a] had a pIC50 against PARP1 (Table 1A) of 7.00 to 8.00.
With `Cn1c(N2CCN(C(=O)CN3CCCC3c3cc(C(F)(F)F)c(=O)[nH]n3)CC2)nc2ccccc21` (single isomer, unassigned) [Compound 97a], the pIC50 at PARP1 (Table 1A) was 6.00 to 7.00.
In the case of `O=C(CN1CCCC1c1cc(C(F)(F)F)c(=O)[nH]n1)N1CCN(c2cnc(C(F)(F)F)cn2)CC1` (single isomer, unassigned) [Compound 45a], at PARP1 (Table 1A), the pIC50 is 7.00 to 8.00.
Molecule `O=C(CN1CCCC1c1cc(C(F)(F)F)c(=O)[nH]n1)N1CCN(c2ncc(F)cn2)CC1` (single isomer, unassigned) [Compound 43b] showed a pIC50 against PARP1 (Table 1A) of 5.00 to 6.00.
For the molecule `O=C(CN1CCCC1c1n[nH]c(=O)c2ccccc12)N1CCN(c2ncc(C(F)(F)F)cn2)CC1` (single isomer, unassigned) [Compound 38a, 4-(1-(2-oxo-2-(4-(5-(trifluoromethyl)pyrimidin-2-yl)piperazin-1-yl)ethyl)pyrrolidin-2-yl)phthalazin-1(2H)-one], the pIC50 against PARP1 (Table 1A) was 6.00 to 7.00.
For `O=C(CN1CCCC1c1cc(C(F)(F)F)c(=O)[nH]n1)N1CCN(c2ncc(C3CC3)cn2)CC1` (single isomer, unassigned) [Compound 69a], at PARP1 (Table 1A), the pIC50 is 7.00 to 8.00.
The molecule `O=C(CCN1CCCC(c2cc(C(F)(F)F)c(=O)[nH]n2)C1)N1CCN(c2ncc(C(F)(F)F)cn2)CC1` (single isomer, unassigned) [Compound 1b, 6-(1-(3-oxo-3-(4-(5-(trifluoromethyl)pyrimidin-2-yl)piperazin-1-yl)propyl)piperidin-3-yl)-4-(trifluoromethyl)pyridazin-3(2H)-one] gave a pIC50 against PARP1 (Table 1) of 7.00 to 8.00.
At PARP1 (Table 1A), `O=C(CN1Cc2ccccc2C1c1cc(C(F)(F)F)c(=O)[nH]n1)N1CCN(c2ncc(C(F)(F)F)cn2)CC1` (single isomer, unassigned) [Compound 104b, 6-(2-(2-oxo-2-(4-(5-(trifluoromethyl)pyrimidin-2-yl)piperazin-1-yl)ethyl)isoindolin-1-yl)-4-(trifluoromethyl)pyridazin-3(2H)-one] showed a pIC50 of 5.00 to 6.00.
The molecule `O=C(CCN1CCCC(c2c[nH]c(=O)c(C(F)(F)F)c2)C1)N1CCN(c2ncc(C(F)(F)F)cn2)CC1` (single isomer, unassigned) [Compound 25a] gave a negative-log IC50 (pIC50) at PARP1 (Table 1) of 7.00 to 8.00.
`Cc1[nH]c(=O)c(C(F)(F)F)cc1C1CCCN1CC(=O)N1CCN(c2ncc(C(F)(F)F)cn2)CC1` (single isomer, unassigned) [Compound 102a, 6-methyl-5-(1-(2-oxo-2-(4-(5-(trifluoromethyl)pyrimidin-2-yl)piperazin-1-yl)ethyl)pyrrolidin-2-yl)-3-(trifluoromethyl)pyridin-2(1H)-one]: on PARP1 (Table 1A), the pIC50 is 6.00 to 7.00.
Consider `O=C(CN1CCCC(c2cc(C(F)(F)F)c(=O)[nH]n2)C1)N1CCN(c2ncc(C(F)(F)F)cn2)CC1` (single isomer, unassigned) [Compound 14a], for which the pIC50 on PARP1 (Table 1) was 7.00 to 8.00.
In turn, `O=C(CN1CCCC1c1cc(C(F)(F)F)c(=O)[nH]n1)N1CCN(c2ncc(Cl)cn2)CC1` (single isomer, unassigned) [Compound 35b] showed a pIC50 against PARP1 (Table 1A) of 5.00 to 6.00.
Still for that read-out and setting: under `CNC(=O)c1cnc(N2CCN(C(=O)CN3CCCC3c3cc(C(F)(F)F)c(=O)[nH]n3)CC2)cn1` (single isomer, unassigned) [Compound 54a] stands 6.00 to 7.00; under `O=C(CN1CCCC1c1cc(C(F)(F)F)c(=O)[nH]n1)C1CCN(c2ncc(C(F)(F)F)cn2)CC1` (single isomer, unassigned) [Compound 75a], 7.00 to 8.00.
On PARP1 (Table 1), `O=C(CCN1CCCCC(c2cc(C(F)(F)F)c(=O)[nH]n2)C1)N1CCN(c2ncc(C(F)(F)F)cn2)CC1` (racemic) [Compound 12rac] had a pIC50 of 6.00 to 7.00.
In turn, `O=C(CN1CCCC1c1n[nH]c(=O)c2ccccc12)N1CCN(c2ncc(C(F)(F)F)cn2)CC1` (single isomer, unassigned) [Compound 38b, 4-(1-(2-oxo-2-(4-(5-(trifluoromethyl)pyrimidin-2-yl)piperazin-1-yl)ethyl)pyrrolidin-2-yl)phthalazin-1(2H)-one] showed a pIC50 at PARP1 (Table 1A) of 5.00 to 6.00.
`CNC(=O)c1ccc(N2CCN(C(=O)CCN3CCC3c3cc(C(F)(F)F)c(=O)[nH]n3)CC2)cn1` (single isomer, unassigned) [Compound 56b] had a pIC50 against PARP1 (Table 1A) of 6.00 to 7.00.
Still for that read-out and setting: under `O=C(CN1CCCC1c1cc(C(F)(F)F)c(=O)[nH]n1)N1CCN(c2ccc(C3CC3)cn2)CC1` (single isomer, unassigned) [Compound 79a] stands 7.00 to 8.00; under `CN(c1ncc(C(F)(F)F)cn1)C1CCN(C(=O)CN2CCCC2c2cc(C(F)(F)F)c(=O)[nH]n2)CC1` (single isomer, unassigned) [Compound 107a], 5.00 to 6.00.
The molecule “6-(1-(3-oxo-3-(4-(5-(trifluoromethyl)pyrimidin-2-yl)piperazin-1-yl)propyl)azetidin-2-yl)-4-(trifluoromethyl)pyridazin-3(2H)-one [Compound 5rac]” gave a pIC50 on PARP1 (Table 1) of 7.00 to 8.00.
On PARP1 (Table 1A), `CNC(=O)c1ccc(N2CCN(C(=O)CN3CCC3c3cc(C(F)(F)F)c(=O)[nH]n3)CC2)cn1` (racemic) [Compound 53rac] showed a pIC50 of 6.00 to 7.00.
For `O=C(CCN1CCCC(c2cc(C(F)(F)F)c(=O)[nH]n2)C1)N1CCN(c2ccc(Cl)cn2)CC1` (single isomer, unassigned) [Compound 15b], the pIC50 at PARP1 (Table 1) was 6.00 to 7.00.
